For three compounds, inhibition and IC50 results are on record in PMC3489664, “Sigma-1 Receptor Agonists Directly Inhibit NaV1.2/1.4 Channels” (PLoS ONE, 2012).

Common to all, as to type: cell-based
In experiment [1] the target is T1, NaV1.2 (Rattus norvegicus, UniProt P04775).
T1 construct: gene Scn2a; rat brain type IIA Na+ channel clone
The experiment in a line: whole-cell patch clamp in transfected HEK293T cells, […]. The note with it: HEK-293T.

Experiment [2] has as its target T1, NaV1.2. The experiment can be described thus: whole-cell patch clamp in transfected HEK293T and COS-7 cells, […]. (In general: In patch-clamp work, channel activity is measured electrically.)
Experiment [3] deals with T2, NaV1.2 (Rattus norvegicus, UniProt P04775, F1764A).
T2 construct: gene Scn2a; rat brain type IIA Na+ channel clone
The experiment can be described thus: whole-cell patch clamp in transfected HEK293T cells, […]. The note with it: HEK-293T.

Experiment [4] concerns the target T1, NaV1.2. The experiment can be described thus: whole-cell patch clamp in transfected HEK293T cells.
Experiment [5] addresses T3, NaV1.4 (Rattus norvegicus, UniProt P15390, F1579A).
T3 construct: gene Scn4a; rat NaV1.4 (NM013178)
The experiment can be described thus: whole-cell patch clamp in transfected HEK293T cells, […]. Particulars: HEK-293T.

The target of experiment [6] is T4, NaV1.4 (Rattus norvegicus, UniProt P15390).
T4 construct: gene Scn4a; rat NaV1.4 (NM013178) in pEGFP-N1
The experiment in a line: whole-cell patch clamp in transfected HEK293T and COS-7 cells, […].

Experiment [7] addresses T5, NaV1.4 (Rattus norvegicus, UniProt P15390, Y1586A).
T5 construct: gene Scn4a; rat NaV1.4 (NM013178)
The experiment in a line: whole-cell patch clamp in transfected HEK293T cells, […]. Particulars: HEK-293T.

Experiment [8] addresses T6, NaV1.2 (Rattus norvegicus, UniProt P04775, Y1771A).
T6 construct: gene Scn2a; rat brain type IIA Na+ channel clone
The experiment is described as above. Particulars: HEK-293T.

T1 sequence (P04775 whole entry): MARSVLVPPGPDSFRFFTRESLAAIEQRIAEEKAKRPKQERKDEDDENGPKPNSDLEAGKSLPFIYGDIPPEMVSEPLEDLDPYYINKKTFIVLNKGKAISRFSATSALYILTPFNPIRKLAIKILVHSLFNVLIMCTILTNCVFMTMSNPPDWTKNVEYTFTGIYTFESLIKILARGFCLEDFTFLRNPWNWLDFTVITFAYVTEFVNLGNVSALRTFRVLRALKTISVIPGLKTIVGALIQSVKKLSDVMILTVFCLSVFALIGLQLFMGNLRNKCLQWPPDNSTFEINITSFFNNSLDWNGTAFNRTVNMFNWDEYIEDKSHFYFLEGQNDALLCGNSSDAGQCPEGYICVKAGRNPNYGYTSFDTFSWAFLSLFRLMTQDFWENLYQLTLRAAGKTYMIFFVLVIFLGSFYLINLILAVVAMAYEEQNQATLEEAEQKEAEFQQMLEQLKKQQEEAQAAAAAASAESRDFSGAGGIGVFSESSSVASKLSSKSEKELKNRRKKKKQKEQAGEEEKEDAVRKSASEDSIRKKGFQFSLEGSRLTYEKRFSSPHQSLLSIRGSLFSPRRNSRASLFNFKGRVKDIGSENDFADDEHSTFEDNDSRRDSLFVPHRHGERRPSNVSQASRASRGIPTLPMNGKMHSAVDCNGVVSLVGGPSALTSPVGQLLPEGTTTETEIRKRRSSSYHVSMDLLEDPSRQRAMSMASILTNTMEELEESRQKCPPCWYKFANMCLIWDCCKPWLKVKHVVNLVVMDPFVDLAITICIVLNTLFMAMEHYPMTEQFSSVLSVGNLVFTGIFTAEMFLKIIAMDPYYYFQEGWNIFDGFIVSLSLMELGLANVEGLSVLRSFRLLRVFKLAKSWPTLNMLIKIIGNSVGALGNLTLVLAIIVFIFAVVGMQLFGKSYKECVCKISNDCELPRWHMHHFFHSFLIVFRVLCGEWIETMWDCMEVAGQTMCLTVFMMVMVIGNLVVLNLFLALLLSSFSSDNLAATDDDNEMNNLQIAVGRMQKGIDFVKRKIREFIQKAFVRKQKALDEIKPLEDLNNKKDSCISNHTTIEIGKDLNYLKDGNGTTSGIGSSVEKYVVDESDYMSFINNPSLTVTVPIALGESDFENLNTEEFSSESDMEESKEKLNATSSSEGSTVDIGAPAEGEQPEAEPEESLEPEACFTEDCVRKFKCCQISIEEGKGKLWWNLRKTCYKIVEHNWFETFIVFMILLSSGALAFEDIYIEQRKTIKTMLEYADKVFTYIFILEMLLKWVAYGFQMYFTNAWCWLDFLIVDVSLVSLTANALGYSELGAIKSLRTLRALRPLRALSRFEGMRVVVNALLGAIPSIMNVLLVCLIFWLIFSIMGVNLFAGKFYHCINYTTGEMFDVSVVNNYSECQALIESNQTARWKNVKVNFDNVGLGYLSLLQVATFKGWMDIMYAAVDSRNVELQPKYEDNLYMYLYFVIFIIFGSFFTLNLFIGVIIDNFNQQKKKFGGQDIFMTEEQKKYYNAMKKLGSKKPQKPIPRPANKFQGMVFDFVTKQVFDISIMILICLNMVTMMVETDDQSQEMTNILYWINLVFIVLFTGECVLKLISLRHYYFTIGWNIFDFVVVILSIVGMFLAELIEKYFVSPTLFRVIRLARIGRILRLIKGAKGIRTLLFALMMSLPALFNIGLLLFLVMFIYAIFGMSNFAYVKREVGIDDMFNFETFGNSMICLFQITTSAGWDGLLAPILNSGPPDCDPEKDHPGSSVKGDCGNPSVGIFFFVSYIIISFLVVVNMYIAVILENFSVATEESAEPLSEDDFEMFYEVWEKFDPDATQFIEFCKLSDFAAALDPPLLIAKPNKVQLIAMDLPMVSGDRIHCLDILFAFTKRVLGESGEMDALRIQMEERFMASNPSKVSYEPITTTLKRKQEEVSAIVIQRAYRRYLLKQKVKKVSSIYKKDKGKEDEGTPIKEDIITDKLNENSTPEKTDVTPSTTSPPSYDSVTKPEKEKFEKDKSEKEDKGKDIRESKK
T4 sequence (P15390 whole entry): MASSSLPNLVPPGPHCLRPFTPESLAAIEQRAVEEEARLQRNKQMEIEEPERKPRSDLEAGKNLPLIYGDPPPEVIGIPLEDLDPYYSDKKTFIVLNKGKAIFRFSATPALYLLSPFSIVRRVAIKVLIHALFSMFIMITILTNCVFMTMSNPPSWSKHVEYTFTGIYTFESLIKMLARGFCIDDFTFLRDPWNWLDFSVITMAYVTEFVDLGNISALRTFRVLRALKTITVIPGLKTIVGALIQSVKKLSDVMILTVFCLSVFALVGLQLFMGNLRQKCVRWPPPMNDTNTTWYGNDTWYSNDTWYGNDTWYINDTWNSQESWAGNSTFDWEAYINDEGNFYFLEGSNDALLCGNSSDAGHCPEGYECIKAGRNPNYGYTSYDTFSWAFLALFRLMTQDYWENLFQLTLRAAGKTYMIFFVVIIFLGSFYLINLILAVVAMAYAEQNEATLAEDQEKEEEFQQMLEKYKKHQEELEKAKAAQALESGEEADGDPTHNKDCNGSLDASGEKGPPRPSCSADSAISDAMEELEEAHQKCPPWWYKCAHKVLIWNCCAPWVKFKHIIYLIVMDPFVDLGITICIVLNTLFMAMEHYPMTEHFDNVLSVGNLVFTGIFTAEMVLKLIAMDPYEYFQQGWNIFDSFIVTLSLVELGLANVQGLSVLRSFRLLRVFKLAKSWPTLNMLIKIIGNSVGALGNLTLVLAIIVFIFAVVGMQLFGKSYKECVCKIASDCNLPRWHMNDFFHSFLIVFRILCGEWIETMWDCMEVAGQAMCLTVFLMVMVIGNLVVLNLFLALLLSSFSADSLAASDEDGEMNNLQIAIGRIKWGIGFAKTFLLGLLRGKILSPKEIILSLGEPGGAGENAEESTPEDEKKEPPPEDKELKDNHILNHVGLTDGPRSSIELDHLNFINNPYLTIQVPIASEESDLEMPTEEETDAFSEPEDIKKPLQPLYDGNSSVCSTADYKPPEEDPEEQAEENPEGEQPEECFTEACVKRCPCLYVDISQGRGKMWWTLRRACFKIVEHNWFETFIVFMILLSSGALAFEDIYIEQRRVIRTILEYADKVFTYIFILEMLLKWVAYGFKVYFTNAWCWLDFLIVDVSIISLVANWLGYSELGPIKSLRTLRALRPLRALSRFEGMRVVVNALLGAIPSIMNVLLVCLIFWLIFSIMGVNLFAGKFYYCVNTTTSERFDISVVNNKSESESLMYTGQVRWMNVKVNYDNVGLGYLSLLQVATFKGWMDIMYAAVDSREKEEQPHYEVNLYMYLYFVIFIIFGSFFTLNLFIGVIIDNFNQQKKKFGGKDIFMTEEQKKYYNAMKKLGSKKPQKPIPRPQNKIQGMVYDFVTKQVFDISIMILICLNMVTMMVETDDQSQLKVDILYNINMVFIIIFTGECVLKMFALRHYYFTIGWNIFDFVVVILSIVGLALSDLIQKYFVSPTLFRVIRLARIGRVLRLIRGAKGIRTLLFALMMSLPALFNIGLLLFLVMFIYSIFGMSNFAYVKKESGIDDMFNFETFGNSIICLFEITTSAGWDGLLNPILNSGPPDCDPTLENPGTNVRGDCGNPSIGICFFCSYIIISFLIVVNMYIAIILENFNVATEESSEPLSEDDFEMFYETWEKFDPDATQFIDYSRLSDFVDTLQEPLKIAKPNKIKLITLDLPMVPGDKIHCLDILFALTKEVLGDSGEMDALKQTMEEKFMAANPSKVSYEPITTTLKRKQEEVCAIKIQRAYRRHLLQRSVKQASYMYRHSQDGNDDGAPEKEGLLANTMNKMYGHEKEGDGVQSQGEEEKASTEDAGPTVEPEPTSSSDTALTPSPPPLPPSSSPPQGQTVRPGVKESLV
T5 sequence (P15390 whole entry Y1586A): as the sequence (P15390 whole entry) above, with Y1586A counted along it
T3 sequence (P15390 whole entry F1579A): as the sequence (P15390 whole entry) above, with F1579A counted along it
T6 sequence (P04775 whole entry Y1771A): as the sequence (P04775 whole entry) above, with Y1771A counted along it
T2 sequence (P04775 whole entry F1764A): as the sequence (P04775 whole entry) above, with F1764A counted along it

By inhibition is commonly meant the relative decrease from the control value, in per cent. Consider `Cc1ccccc1NC(=N)Nc1ccccc1C` [1,3-di-o-tolyl-guanidine], for which the inhibition at 100 µM at NaV1.2 [1] came out at 69 ± 2.5%.

On NaV1.2 [2], `COc1ccc2c(c1)[C@]13CCCC[C@@H]1[C@H](C2)N(C)CC3` [Dextromethorphan] had an inhibition at 100 µM of 65.8 ± 2%.

One may read the IC50 as the point on the concentration scale where inhibition reaches its midpoint. A high value points to weaker potency in that assay. As to `C=CCN1CC[C@]2(C)c3cc(O)ccc3C[C@H]1[C@H]2C` [(+)-SKF 10047], the inhibition at 100 µM amounted to 25.9 ± 1.6% against NaV1.2 [3]; 23 ± 1.7% against NaV1.4 [5]; 51.5 ± 2.5% against NaV1.4 [6]; 49.3 ± 0.5% against NaV1.4 [7]; 45.2 ± 1.3% at NaV1.2 [8]. Also, the IC50 against NaV1.2 [4] amounted to 140 µM.
